Legend:
Type in all cases: in vivo
Amaranthus retroflexus = experiment: greenhouse test, pre-emergence treatment; settings: scale from 0 to 100
Source text: (§1) The culture containers used were plastic flowerpots containing loamy sand with approximately 3.0% of humus as the substrate. The seeds of the test plants were sown separately for each species.
(§2) For the pre-emergence treatment, the active ingredients, which had been suspended or emulsified in water, were applied directly after sowing by means of finely distributing nozzles. The containers were irrigated gently to promote germination and growth and subsequently covered with transparent plastic hoods until the plants had rooted. This cover caused uniform germination of the test plants, unless this had been impaired by the active ingredients. For the post-emergence treatment, the test plants were first grown to a height of 3 to 15 cm, depending on the plant habit, and only then treated with the active ingredients which had been suspended or emulsified in water. For this purpose, the test plants were either sown directly and grown in the same containers, or they were first grown separately as seedlings and transplanted into the test containers a few days prior to treatment.
(§3) Depending on the species, the plants were kept at 10-25° C. or 20-35° C., respectively. The test period extended over 2 to 4 weeks. During this time, the plants were tended, and their response to the individual treatments was evaluated.
(§4) Evaluation was carried out using a scale from 0 to 100. 100 means no emergence of the plants, or complete destruction of at least the aerial moieties, and 0 means no damage, or normal course of growth. A moderate herbicidal activity is given at values of at least 60, a good herbicidal activity is given at values of at least 70, and a very good herbicidal activity is given at values of at least 85.
(§5) The plants used in the greenhouse experiments were of the following species: […]

Echinocloa crus-galli = experiment: greenhouse test, pre-emergence treatment; settings: scale from 0 to 100
Source text: as §1, §2, §3, §4, §5

Setaria faberi = experiment: greenhouse test, pre-emergence treatment; settings: scale from 0 to 100
Source text: as §1, §2, §3, §4, §5

Abutilon theophrasti = experiment: greenhouse test, pre-emergence treatment; settings: scale from 0 to 100
Source text: as §1, §2, §3, §4, §5

Apera spica-venti = experiment: greenhouse test, pre-emergence treatment; settings: scale from 0 to 100
Source text: as §1, §2, §3, §4, §5

Setaria viridis [1] = experiment: greenhouse test, post-emergence treatment; settings: 1104 g/ha, scale from 0 to 100
Source text: as §1, §2, §3, §4, §5

Setaria viridis [2] = experiment: greenhouse test, pre-emergence treatment; settings: 125 g/ha, scale from 0 to 100
Source text: as §1, §2, §3, §4, §5

Structure (SMILES): CCC(F)(CC)c1nc(N)nc(Nc2nc(F)c(F)c(Cl)c2F)n1 [Example 30]
- herbicidal activity (Amaranthus retroflexus; 250 g/ha): very good (a very good herbicidal activity is given at values of at least 85)
- herbicidal activity (Echinocloa crus-galli; 250 g/ha): very good (a very good herbicidal activity is given at values of at least 85)
- herbicidal activity (Setaria faberi; 250 g/ha): very good (a very good herbicidal activity is given at values of at least 85)

Structure (SMILES): COc1c(F)c(F)nc(Nc2nc(N)nc(C(C)(C)F)n2)c1F [Example 31]
- herbicidal activity (Abutilon theophrasti; 250 g/ha): very good (a very good herbicidal activity is given at values of at least 85)
- herbicidal activity (Amaranthus retroflexus; 250 g/ha): very good (a very good herbicidal activity is given at values of at least 85)
- herbicidal activity (Setaria faberi; 250 g/ha): very good (a very good herbicidal activity is given at values of at least 85)

Structure (SMILES): CCC(C)c1nc(N)nc(Nc2c(F)c(F)nc(F)c2F)n1 (centres unmarked) [Example 69]
- herbicidal activity (Abutilon theophrasti; 125 g/ha): very good (a very good herbicidal activity is given at values of at least 85)
- herbicidal activity (Amaranthus retroflexus; 125 g/ha): very good (a very good herbicidal activity is given at values of at least 85)

Structure (SMILES): CC1(c2nc(N)nc(Nc3c(F)c(F)nc(F)c3F)n2)CCCC1 [Example 67]
- herbicidal activity (Amaranthus retroflexus; 250 g/ha): very good (a very good herbicidal activity is given at values of at least 85)

Structure (SMILES): CCC(C)(F)c1nc(N)nc(Nc2c(F)c(F)nc(F)c2F)n1 (centres unmarked) [Example 52]
- herbicidal activity (Abutilon theophrasti; 250 g/ha): very good (a very good herbicidal activity is given at values of at least 85)
- herbicidal activity (Amaranthus retroflexus; 250 g/ha): very good (a very good herbicidal activity is given at values of at least 85)
- herbicidal activity (Echinocloa crus-galli; 250 g/ha): very good (a very good herbicidal activity is given at values of at least 85)

Structure (SMILES): Nc1nc(Nc2nc(F)c(F)c(Cl)c2F)nc(C2(Cl)CCCC2)n1 [Example 11]
- herbicidal activity (Abutilon theophrasti; 500 g/ha): very good (a very good herbicidal activity is given at values of at least 85)
- herbicidal activity (Amaranthus retroflexus; 500 g/ha): very good (a very good herbicidal activity is given at values of at least 85)
- herbicidal activity (Setaria faberi; 500 g/ha): very good (a very good herbicidal activity is given at values of at least 85)

Structure (SMILES): Cc1c(F)c(F)nc(Nc2nc(N)nc(C(C)(C)F)n2)c1F [Example 29]
- herbicidal activity (Abutilon theophrasti; 125 g/ha): very good (a very good herbicidal activity is given at values of at least 85)
- herbicidal activity (Amaranthus retroflexus; 125 g/ha): very good (a very good herbicidal activity is given at values of at least 85)
- herbicidal activity (Setaria faberi; 125 g/ha): very good (a very good herbicidal activity is given at values of at least 85)

Structure (SMILES): COC(C)(C)c1nc(N)nc(Nc2nc(F)c(F)c(Cl)c2F)n1 [Example 22]
- herbicidal activity (Amaranthus retroflexus; 250 g/ha): very good (a very good herbicidal activity is given at values of at least 85)

Structure (SMILES): Nc1nc(Nc2nc(F)c(F)c(Cl)c2F)nc(C2CCCC2)n1 [Example 17]
- herbicidal activity (Amaranthus retroflexus; 250 g/ha): good (a good herbicidal activity is given at values of at least 70)

Structure (SMILES): CCC(C)(F)c1nc(N)nc(Nc2nc(F)c(F)cc2F)n1 (racemic) [Example 14]
- herbicidal activity (Abutilon theophrasti; 62.5 g/ha): very good (a very good herbicidal activity is given at values of at least 85)
- herbicidal activity (Amaranthus retroflexus; 62.5 g/ha): very good (a very good herbicidal activity is given at values of at least 85)
- herbicidal activity (Setaria faberi; 62.5 g/ha): very good (a very good herbicidal activity is given at values of at least 85)

Structure (SMILES): CC(C)(C)c1nc(N)nc(Nc2c(F)c(F)nc(F)c2F)n1 [Example 62]
- herbicidal activity (Abutilon theophrasti; 250 g/ha): very good (a very good herbicidal activity is given at values of at least 85)
- herbicidal activity (Amaranthus retroflexus; 250 g/ha): very good (a very good herbicidal activity is given at values of at least 85)
- herbicidal activity (Setaria faberi; 250 g/ha): very good (a very good herbicidal activity is given at values of at least 85)

Structure (SMILES): CC(C)(F)c1nc(N)nc(Nc2nc(F)c(F)c(OS(C)(=O)=O)c2F)n1 [Example 37]
- herbicidal activity (Amaranthus retroflexus; 250 g/ha): very good (a very good herbicidal activity is given at values of at least 85)
- herbicidal activity (Apera spica-venti; 250 g/ha): good (a good herbicidal activity is given at values of at least 70)

Structure (SMILES): Nc1nc(Nc2c(F)c(F)nc(F)c2F)nc(C(F)(F)F)n1 [Example 50]
- herbicidal activity (Amaranthus retroflexus; 500 g/ha): very good (a very good herbicidal activity is given at values of at least 85)
- herbicidal activity (Apera spica-venti; 500 g/ha): good (a good herbicidal activity is given at values of at least 70)

Structure (SMILES): Nc1nc(Nc2nc(F)c(F)c(Cl)c2F)nc(C2(F)CCCC2)n1 [Example 12]
- herbicidal activity (Amaranthus retroflexus; 125 g/ha): very good (a very good herbicidal activity is given at values of at least 85)
- herbicidal activity (Echinocloa crus-galli; 125 g/ha): very good (a very good herbicidal activity is given at values of at least 85)
- herbicidal activity (Setaria faberi; 125 g/ha): very good (a very good herbicidal activity is given at values of at least 85)

Structure (SMILES): CC(C)(F)c1nc(N)nc(Nc2c(F)ccnc2F)n1 [Example 48]
- herbicidal activity (Amaranthus retroflexus; 125 g/ha): very good (a very good herbicidal activity is given at values of at least 85)

Structure (SMILES): CC1(c2nc(N)nc(Nc3c(F)c(F)nc(F)c3F)n2)CCCCC1 [Example 68]
- herbicidal activity (Amaranthus retroflexus; 250 g/ha): very good (a very good herbicidal activity is given at values of at least 85)

Structure (SMILES): CC(C)Oc1cccnc1Nc1nc(N)nc(C(F)(F)F)n1 [Example 36]
- herbicidal activity (Setaria viridis [1]): very good (a very good herbicidal activity is given at values of at least 85)

Structure (SMILES): Nc1nc(Nc2c(F)c(F)nc(F)c2F)nc(C2(F)CCC2)n1 [Example 70]
- herbicidal activity (Amaranthus retroflexus; 1000 g/ha): very good (a very good herbicidal activity is given at values of at least 85)
- herbicidal activity (Apera spica-venti; 1000 g/ha): good (a good herbicidal activity is given at values of at least 70)

Structure (SMILES): Nc1nc(Nc2c(F)c(F)nc(F)c2F)nc(C2(F)CCCC2)n1 [Example 66]
- herbicidal activity (Abutilon theophrasti; 250 g/ha): very good (a very good herbicidal activity is given at values of at least 85)
- herbicidal activity (Amaranthus retroflexus; 250 g/ha): very good (a very good herbicidal activity is given at values of at least 85)
- herbicidal activity (Setaria faberi; 250 g/ha): very good (a very good herbicidal activity is given at values of at least 85)

Structure (SMILES): CC(C)(C#N)c1nc(N)nc(Nc2c(F)c(F)nc(F)c2F)n1 [Example 57]
- herbicidal activity (Abutilon theophrasti; 250 g/ha): very good (a very good herbicidal activity is given at values of at least 85)
- herbicidal activity (Amaranthus retroflexus; 250 g/ha): very good (a very good herbicidal activity is given at values of at least 85)

Structure (SMILES): CCC(F)(CC)c1nc(N)nc(Nc2c(F)c(F)nc(F)c2F)n1 [Example 71]
- herbicidal activity (Abutilon theophrasti; 250 g/ha): very good (a very good herbicidal activity is given at values of at least 85)
- herbicidal activity (Amaranthus retroflexus; 250 g/ha): very good (a very good herbicidal activity is given at values of at least 85)
- herbicidal activity (Setaria faberi; 250 g/ha): very good (a very good herbicidal activity is given at values of at least 85)

Structure (SMILES): CC(C)C(F)c1nc(N)nc(Nc2nc(F)c(F)c(Cl)c2F)n1 (centres unmarked) [Example 32]
- herbicidal activity (Amaranthus retroflexus; 125 g/ha): very good (a very good herbicidal activity is given at values of at least 85)
- herbicidal activity (Echinocloa crus-galli; 125 g/ha): very good (a very good herbicidal activity is given at values of at least 85)
- herbicidal activity (Setaria faberi; 125 g/ha): very good (a very good herbicidal activity is given at values of at least 85)

Structure (SMILES): CC1CCC(c2nc(N)nc(Nc3c(F)c(F)nc(F)c3F)n2)CC1 (centres unmarked) [Example 64]
- herbicidal activity (Abutilon theophrasti; 250 g/ha): very good (a very good herbicidal activity is given at values of at least 85)
- herbicidal activity (Amaranthus retroflexus; 250 g/ha): very good (a very good herbicidal activity is given at values of at least 85)
- herbicidal activity (Setaria faberi; 250 g/ha): very good (a very good herbicidal activity is given at values of at least 85)

Structure (SMILES): CCC(F)c1nc(N)nc(Nc2c(F)c(F)nc(F)c2F)n1 (centres unmarked) [Example 63]
- herbicidal activity (Abutilon theophrasti; 125 g/ha): very good (a very good herbicidal activity is given at values of at least 85)
- herbicidal activity (Amaranthus retroflexus; 125 g/ha): very good (a very good herbicidal activity is given at values of at least 85)
- herbicidal activity (Setaria faberi; 125 g/ha): very good (a very good herbicidal activity is given at values of at least 85)

Structure (SMILES): CCC(C)(F)c1nc(N)nc(Nc2nc(F)c(F)c(Cl)c2F)n1 (centres unmarked) [Example 13]
- herbicidal activity (Amaranthus retroflexus; 62.5 g/ha): very good (a very good herbicidal activity is given at values of at least 85)
- herbicidal activity (Echinocloa crus-galli; 62.5 g/ha): very good (a very good herbicidal activity is given at values of at least 85)
- herbicidal activity (Setaria faberi; 62.5 g/ha): very good (a very good herbicidal activity is given at values of at least 85)

Structure (SMILES): CC(C)(F)c1nc(N)nc(Nc2nc(F)c(F)c(Cl)c2F)n1 [Example 5]
- herbicidal activity (Amaranthus retroflexus; 125 g/ha): very good (a very good herbicidal activity is given at values of at least 85)
- herbicidal activity (Echinocloa crus-galli; 125 g/ha): very good (a very good herbicidal activity is given at values of at least 85)
- herbicidal activity (Setaria viridis [2]): very good (a very good herbicidal activity is given at values of at least 85)

Structure (SMILES): Nc1nc(Nc2c(F)c(F)nc(F)c2F)nc(C2(Cl)CCCC2)n1 [Example 58]
- herbicidal activity (Amaranthus retroflexus; 250 g/ha): very good (a very good herbicidal activity is given at values of at least 85)
- herbicidal activity (Echinocloa crus-galli; 250 g/ha): very good (a very good herbicidal activity is given at values of at least 85)
- herbicidal activity (Setaria faberi; 250 g/ha): very good (a very good herbicidal activity is given at values of at least 85)

Structure (SMILES): COC(C)c1nc(N)nc(Nc2c(F)c(F)nc(F)c2F)n1 (centres unmarked) [Example 61]
- herbicidal activity (Abutilon theophrasti; 500 g/ha): very good (a very good herbicidal activity is given at values of at least 85)
- herbicidal activity (Amaranthus retroflexus; 500 g/ha): very good (a very good herbicidal activity is given at values of at least 85)

Structure (SMILES): CC(C)(F)c1nc(N)nc(Nc2c(F)cncc2F)n1 [Example 54]
- herbicidal activity (Amaranthus retroflexus; 62 g/ha): very good (a very good herbicidal activity is given at values of at least 85)
- herbicidal activity (Apera spica-venti; 62 g/ha): very good (a very good herbicidal activity is given at values of at least 85)
